From patent US20080299195A1, “USE OF RANOLAZINE FOR ELEVATED BRAIN-TYPE NATRIURETIC PEPTIDE” (priority 2007, published 2008)

Test system: patients with non-ST elevation ACS
Test: MERLIN-TIMI 36 trial: randomized, double-blind, placebo-controlled trial of ranolazine, stratified by baseline BNP
Format: in vivo, human
Details: ranolazine vs placebo
Source text: Ranolazine is believed to exert anti-ischemic effects through a reduction in myocardial cellular sodium and calcium overload with a consequent reduction in wall stress. B-type natriuretic peptide (BNP) is released in response to increased wall stress and is a potent indicator of risk in acute coronary syndromes (ACS). This study was a prospective evaluation of the interaction between BNP and the effect of ranolazine as part of a randomized, double-blind, placebo-controlled trial.
Patients with a non-ST elevation acute coronary syndrome (NSTEACS), refers to patients with chest discomfort or anginal equivalent occurring at rest, lasting ≧10 minutes, and consistent with myocardial ischemia, and the presence of ischemic symptoms (≧5 minutes) at rest within 48 hours of admittance which may include index episode, and having at least one of the following indicators of moderate-high risk: • Elevated cardiac troponin (above local MI limit) or CK-MB (>ULN) • ST-depression (horizontal or down-sloping) >0.1 mV • Diabetes mellitus (requiring insulin or oral therapy) • A Risk Score of >3 wherein one point is assigned for each of the following variables and a total score calculated as the arithmetic sum: • Age >65 years; • Known CAD (prior MI, CABG, PCI or angiographic stenosis ≧50%); • Three or more cardiac risk factors (DM, elevated cholesterol, hypertension, family history); • More than one episode of ischemic discomfort at rest in the prior 24 hours; • Chronic aspirin use in the 7 days preceding onset of symptoms; • ST segment depression ≧0.05 mV; and • Elevated cardiac troponin or CK-MB.
Plasma BNP were measured (ADVIA® BNP) at baseline (N=4543), 14 days (N=4079), and the Final Visit (N=3328) of the patients with non-ST elevation ACS randomized to ranolazine or placebo in the MERLIN-TIMI 36 trial. During the trial 200 mg of ranolazine (or matching placebo) was administered intravenously over 1 hour, followed by an 80 mg/hr intravenous infusion, which was reduced to 40 mg/hr for patients with an estimated creatinine clearance of less than […] (<0.50 mL/s), and was continued for 12 to 96 hours. On or near the completion (about 1 hour before completion) of the infusion, transition from the IV solution to ranolazine extended release (or matching placebo) occurred and ranolazine extended release (or matching placebo) continued orally at a dose of 1000 mg twice daily until the end of the study. [Morrow, et al., J. Am. Med. Assoc'n. 297 (16), 1775-1783, 2007]. Patients were stratified using BNP >80 pg/mL based upon prior work with this assay. The primary endpoint of the trial was a composite of cardiovascular death, myocardial infarction, or recurrent ischemia (CVD/MI/RI).

Structure (SMILES): COc1ccccc1OCC(O)CN1CCN(CC(=O)Nc2c(C)cccc2C)CC1 (racemic) [ranolazine, (±)-N-(2,6-dimethylphenyl)-4-[2-hydroxy-3-(2-methoxyphenoxy)propyl]-1-piperazine-acetamide]
- HR for endpoint component of worsening angina (patients with BNP>80 pg/mL, CI 0.35-0.84, p=0.005): 0.55
- HR for primary endpoint (composite of cardiovascular death, myocardial infarction, or recurrent ischemia, CVD/MI/RI) (patients with BNP>80 pg/mL, IV 200 mg over 1 h, then 80 mg/hr for 12 to 96 hours, then extended release 1000 mg twice daily orally, 95% CI 0.66-0.94, p=0.009): 0.79
- effect on primary endpoint (CVD/MI/RI) (patients with a negative BNP result, p-interaction=0.052): lack of detectable effect
- HR for endpoint component of worsening angina (95% CI 0.63-1.28, p=0.55, p-interaction 0.079): 0.90
